Source: patent publication US20070122870A1, “Method for water testing and devices and kit of components for use in such a method” (priority 2003, published 2007)
Entries after “also recorded” stand apart in the source; their conditions may differ.

What was measured:
Pseudomonas = test: ECOALERT deployment in controlled flow-through system, respiration (CTC fluorescence); format: cell-based; details: after 72 hours; 50 ppb BPH, 5 ppb TBDE; 7.5° C.
Description: The experimental setup involved 16 tanks (4 animal species 4 exposure treatments) connected in a flow-through system with a direct intake of seawater from 80 m depth in the Stavanger fjord, outside the laboratory. For each one of the test animals, three tanks were connected to a chemostate system which maintained a constant concentration of each of the following chemicals: 50 ppb bisphenol A (BPH), 50 ppb diallyl phthalate (DAP), and 5 ppb tetrabromodiphenylether or PBDE-47 (TBDE). The forth tank had no chemical supply and was used as control. ECOALERT was deployed in the mussel tanks, one basket per tank. The water conditions in all the tanks were: 7.5° C. temperature, pH 7.78 and […].
Each deploying basket of ECOALERT was equipped with 3 dialysis tubes with Pseudomonas, 3 tubes filled with Vibrio natriegens and 3 dialysis tubes with medium-only without cells. Each dialysis tube was repeatedly sampled at 1, 24, 48 and 72 hours. Due to the low temperature of the water (7.5° C.) a low bacterial growth rate was expected and because of that the duration of the experiment was expanded to 72 hours. At every time-point, growth and respiration activity of the bacteria were measured as turbidity and CTC fluorescence respectively using the handheld CTC fluorometer/turbidimeter. […]

caged Pseudomonas sp. [1] = test: Growth limitation (OD) of caged bacteria in dialysis tubes; format: cell-based
Protocol: On the night before the experiment, a number of 2-litre HDPE bottles, one bottle per toxicity treatment, were filled with water (3/4 seawater 1-μm filtered, 1/4 distilled water). The bottles were kept at 15° C. stirring at low speed.
The dialysis tubes, which are supplied soaked in sodium azide, were rinsed throughly, refilled with distilled water and UV-irradiated for 10 minutes to ensure sterility.
Also the night before, a fresh culture of bacteria was inoculated from the original stock in liquid diluted medium.
Before starting the toxicity assay, the bottles were spiked with the contaminant and buffered to pH 7.3. At the same time, a fresh volume of diluted medium was inoculated from the culture grown overnight and kept for ˜2 hours at 15° C. until the growth rate picked up again and OD540 approached 0.005.
Then, the dialysis tubes were emptied of the water and four of them topped up with the bacterial culture, plus one blank tube with medium-only (no bacteria), and placed into the bottle to start the assay. Each bottle could hold 5 dialysis tubes floating upright.
The stirring was kept low and at time intervals samples were removed from the tubes with sterile pipettes to measure the different bacterial indicators.
(ix) The growth dynamics of toxic cultures of caged Pseudomonas sp. were studied. The effect of toxicity on the growth of caged bacteria was studied in several assays where different concentrations of contaminants were added to the water of the tanks.

caged Pseudomonas sp. [2] = test: Respiration indicator (CTC) in toxic caged cultures; format: cell-based; details: caged toxicity assays
Description: Respiration. Respiration was estimated with the redox dye CTC (Polysciences) as values of fluorescent intracellular formazan.
(§1) (x) Bacterial sub-cellular indicators (DNA, respiration, membrane integrity and viability) were studied in toxic cultures of caged Pseudomonas sp.

V. natriegens [3] = test: ProCheck cell viability assay, closed cultures; format: cell-based, Vibrio natriegens; details: closed culture, compared with the non-toxic control
Protocol: (§2) (viii) Two ready-to-use commercial kits to assess cell viability (ProCheck™ Cell Viability Assay) and membrane integrity (LIVE/DEAD® BacLight™ Bacterial Viability Kit) were tested and adapted for using during ECOALERT experiments.
(§3) ProCheck™ is designed to measure the amount of viable, metabolising cells in a sample, and LIVE/DEAD® BacLight™ distinguish live and dead bacteria As a preliminary test, the two kits were tested in a volumetric series of mixtures of two bacterial types of V. natriegens: live, exponentially growing bacteria and dead bacteria killed by autoclaving an aliquot of the same culture. The colorimetric signal indicating cell viability (ProCheck™) and the fluorimetric signal indicating membrane integrity (LIVE/DEAD® BacLight™) increased linearly with the proportion of live bacteria in the mixture.

V. natriegens [4] = test: LIVE/DEAD BacLight membrane integrity, closed cultures; format: cell-based, Vibrio natriegens; details: closed culture
Protocol: as §2, §3

V. natriegens [5] = test: Respiration (CTC fluorescence) in closed cultures; format: cell-based, Vibrio natriegens; details: closed culture; for respiration: compared to the non-toxic control
Protocol: (vi) The application of the redox dye CTC (5-cyano-2,3-ditolyl tetrazolium chloride, Polysciences Europe) was developed to direct fluorimetric determination of respiration in bacterial suspensions. […] Traditionally, CTC has been used with flow cytometry and epifluorescence microscopy, combined with DAPI to counterstain total cells. However, its application to bacterioplankton remains controversial.
An exponentially growing culture of V. natrigens was incubated with the redox dye CTC following the standard procedure (2.0 mM final concentration, 4 h at 28° C.) and samples were taken every 30 minutes to count total cells and CTC+ cells in the microscope.
(§4) (viii) The effect of a range of contaminants on growth dynamics and sub-cellular bioindicators in closed cultures of V. natriegens was studied: […]

caged Pseudomonas sp. [6] = test: Bacterial DNA indicator (PicoGreen) in toxic caged cultures; format: cell-based; details: caged toxicity assays
Description: Bacterial DNA. To improve the detection of bacterial DNA in culture samples, the PicoGreen double-strand DNA (dsDNA) reagent (Molecular Probes) was used instead of DAPI. PicoGreen reagent is more sensitive to small changes in the DNA content of bacterial cultures, resulting in a good correlation with OD.
as §1

V. natriegens [7] = test: DNA (thymidine uptake) and protein (leucine uptake) synthesis in closed cultures; format: cell-based, Vibrio natriegens; details: closed culture; for DNA synthesis / protein synthesis: compared to the control
Protocol: (iv) The application of the 3H-leucine method of Smith and Azam (Marine Microbial. Food Webs. 6(2), 107-114, 1992) was developed and also used with 3H-thymidine to estimate bacterial production. The synthesis of DNA (thymidine uptake) and protein (leucine uptake) was studied in V. natriegens closed cultures. In non-toxic cultures the uptake of both radiotracers by the bacteria reaches maximal values between 4 and 8 hours of the experiment, coinciding with the log-phase of the growth curve.
as §4

V. natriegens [8] = test: Growth dynamics (optical density, cell concentration) in closed cultures; format: cell-based, Vibrio natriegens; details: closed culture; for bacterial growth (growth curve, growth rate, optical density, cell concentration): compared to the non-toxic control
Description: (ii) Sterile, 12-ml capacity, screw-capped, clear polystyrene test tubes (Starstedt) were selected as the most appropriate closed system for use in ECOALERT experiments. These test tubes are ideal for short-term cell culturing where aeration is not critical. Also, the optical density of the culture can be read as often as desired, by simply inserting the same tube in a spectrophotometer, thus avoiding contamination risks and reducing analysis time.
(viii) The effect of a range of contaminants on growth dynamics and sub-cellular bioindicators in closed cultures of V. natriegens was studied:
(xi) The sensitivity of cultures of V. natriegens to a range of contaminants in closed laboratory experimental systems was studied at specified toxic concentrations and time scales.

bacterial culture = test: ECOALERT assay, ratio respiration/growth (CTC/TRB); format: cell-based; details: compared to the control
Protocol: Two bacterial endpoints were chosen based on the results from Example 2: growth and respiration. Growth is an endpoint at population level and is estimated by measuring in vivo optical density (OD) or turbidity (TRB). Respiration is an endpoint at subcellular level and is measured by the fluorescence emitted by actively respiring bacteria, using the CTC redox dye.
To assess OD, TRB and CTC as indicators of toxicity a series of ECOALERT assays were carried out on a wide range of chemical substances, with special attention to common pharmaceuticals but also including some contaminants cited in the OSPAR list for priority action (OSPAR 2000). The concentrations tested were based on toxicological and environmental levels, where this information was available.
Even when no clear effect could be observed in the CTC indicator alone, there was an advantage in using the bacterial indicators OD (or TRB) and CTC simultaneously. That was because it was possible to use the ratio respiration/growth, which is an estimator of the proportion of respiring or active bacteria in the population, as an indirect indicator of the health of the population.

[9] = compared with the non-toxic control

## CC(C)(c1ccc(O)cc1)c1ccc(O)cc1 [BPH, bisphenol A]
Pseudomonas
  bacterial respiration: clear negative effect; also recorded: had an impact on bacteria

## [Cd] [Cd, cadmium]
Caged Pseudomonas sp. [1]; 20 mg Cd/L, after 4 hours of exposure
  growth limitation: 59%
Caged Pseudomonas sp. [1]; lower Cd treatments
  growth limitation: did not cause any clear limitation of bacterial growth
Caged Pseudomonas sp. [2]
  respiration as indicator of toxicity: most sensitive indicator of toxicity

## [Cu] [Cu, copper]
V. natriegens [3]
  cell viability (ProCheck): affecting cell viability
V. natriegens [4]; [9]
  membrane integrity (LIVE/DEAD BacLight): damage of membranes
V. natriegens [5]
  respiration: very conspicuous and instantaneous reduction
V. natriegens [5]; listed as copper
  respiration: nearly ceased
Caged Pseudomonas sp. [6]
  DNA as indicator of toxicity: could not detect limitation
Caged Pseudomonas sp. [1]; 20 mg/L, after 9 hours
  growth limitation: 56%
Caged Pseudomonas sp. [1]; additions under 0.1 mg/L
  effect on growth: enhancing effect on growth
Caged Pseudomonas sp. [1]; assays 1 (doses 0.001-10 mg Cu/L) and 2 (doses 0.02-20 mg Cu/L)
  growth limitation: < 50%
V. natriegens [7]
  DNA synthesis: nearly ceased
  protein synthesis: nearly ceased
V. natriegens [8]
  bacterial growth (growth curve, growth rate, optical density, cell concentration): notable slow down of the growth curve; also recorded: very conspicuous and instantaneous reduction
V. natriegens [8]; listed as copper
  bacterial growth (growth curve, growth rate, optical density, cell concentration): nearly ceased

## Cl[C@H]1[C@H](Cl)[C@@H](Cl)[C@@H](Cl)[C@H](Cl)[C@H]1Cl [Lindane]
V. natriegens [5]
  respiration: transient, rather subtle stimulation; also recorded: transient, faint stimulation
V. natriegens [8]
  bacterial growth (growth curve, growth rate, optical density, cell concentration): transient, rather subtle stimulation; also recorded: transient, faint stimulation

## [Ni] [Ni, nickel]
Caged Pseudomonas sp. [1]; 5 mg/L, end of a 9-h assay
  growth limitation: 51%
Caged Pseudomonas sp. [1]; 20 mg/L, after 9 hours
  growth limitation: 69%
Caged Pseudomonas sp. [1]; below 0.5 mg/L
  effect on growth: seemed to favour growth

## Oc1c(Cl)c(Cl)c(Cl)c(Cl)c1Cl [PCP]
Bacterial culture
  CTC/TRB ratio: loss of respiring cells

## c1ccc2c(c1)ccc1ccccc12 [Phenanthrene, phenanthrene]
V. natriegens [5]
  respiration: No effect
V. natriegens [7]
  protein synthesis: doubled; also recorded: small initial stimulation
V. natriegens [7]; on average
  DNA synthesis rates higher than control: 30%
V. natriegens [8]
  bacterial growth (growth curve, growth rate, optical density, cell concentration): did not affect bacterial growth significantly; also recorded: no major effect

## c1cc2ccc3cccc4ccc(c1)c2c34 [Pyrene, pyrene]
V. natriegens [4]; stationary phase
  membrane integrity (LIVE/DEAD BacLight): loss of membrane integrity
V. natriegens [5]; average
  increase in respiration: 14%
V. natriegens [8]
  bacterial growth (growth curve, growth rate, optical density, cell concentration): no other effect was observed

## CC(C)(c1cc(Br)c(O)c(Br)c1)c1cc(Br)c(O)c(Br)c1 [TBBA]
V. natriegens [4]; stationary phase
  membrane integrity (LIVE/DEAD BacLight): membrane damage
V. natriegens [5]; average
  increase in cellular respiration (ratio respiration/optical density): more than 90%
V. natriegens [5]
  respiration: sudden and important increase in respiration; also recorded: notable increase of respiration

## Brc1cccc(Oc2ccc(Br)c(Br)c2Br)c1 [TBDE, tetrabromodiphenylether]
Pseudomonas
  bacterial respiration: possible positive effect

## NC(=O)N1c2ccccc2C=Cc2ccccc21 [carbamazepine, reference compound]
Bacterial culture
  CTC/TRB ratio: initial positive effect

## [Pb] [lead]
Caged Pseudomonas sp. [1]; 2 mg/L, 4 hours
  growth limitation: 52%
Caged Pseudomonas sp. [2]
  respiration as indicator of toxicity: most sensitive indicator of toxicity

## [Zn] [zinc]
Caged Pseudomonas sp. [6]
  DNA as indicator of toxicity: sensitive indicator of toxicity
Caged Pseudomonas sp. [1]; 50 mg/L, after 4 h
  growth limitation: 51%
Caged Pseudomonas sp. [1]; first experiment, doses between 0.05-5 mg/L
  toxicity / effect on growth: No significant toxicity; also recorded: positive effect in most of the treatments

## dodecylbenzensulfonic acid sodium salt [detergent]
V. natriegens [4]; [9]
  membrane integrity (LIVE/DEAD BacLight): progressive damage of cellular membranes with time
V. natriegens [4]; stationary phase
  membrane integrity (LIVE/DEAD BacLight): deleterious effect on membranes
V. natriegens [5]; sodium salt
  respiration: contrary to that of the non-toxic control; also recorded: seems to enhance
V. natriegens [5]; instant
  reduction in respiration: 10 fold
V. natriegens [7]
  DNA synthesis: increased slightly over the control
V. natriegens [7]; sodium salt
  protein synthesis: inhibited but seems to recover after 48 h
V. natriegens [8]; compared to control bacteria, sodium salt
  size of bacteria: progressively reduced their size; also recorded: reduces
V. natriegens [8]; sodium salt
  bacterial growth (growth curve, growth rate, optical density, cell concentration): increased over the control; also recorded: seems to enhance
V. natriegens [8]; instant
  reduction in bacterial numbers: 10 fold

## mercury [Hg]
Caged Pseudomonas sp. [1]; 2 mg/L, 4 hours
  growth limitation: Up to 60%
Caged Pseudomonas sp. [2]
  respiration as indicator of toxicity: most sensitive indicator of toxicity
